Results published in paper PMC2827657 (Biochemistry, 2010).

Experiments:
[1] = cited from earlier work
NSMOA [2] = biological target: NSMOA (Pseudomonas putida, UniProt O33471); experiment: Linkage relationships of ligand binding and redox equilibria of NSMOA; parameters: species or system Pseudomonas putida S12
NSMOA [3] = biological target: NSMOA (Pseudomonas sp, UniProt O50214); experiment: Stopped-flow fluorescence kinetics of oxidized FAD binding to NSMOA; parameters: species or system Pseudomonas putida S12; settings: 280 μM NSMOA mixed with 50 μM FAD, 25°C, four-exponential fit
apo NSMOA = apo NSMOA (Pseudomonas sp, UniProt O50214); experiment: biochemical
P. putida S12 = settings: growth of P. putida S12; cited from earlier work
[4] = calculated from linkage relationships

Chain of NSMOA (Pseudomonas sp, UniProt O50214) (O50214 whole entry): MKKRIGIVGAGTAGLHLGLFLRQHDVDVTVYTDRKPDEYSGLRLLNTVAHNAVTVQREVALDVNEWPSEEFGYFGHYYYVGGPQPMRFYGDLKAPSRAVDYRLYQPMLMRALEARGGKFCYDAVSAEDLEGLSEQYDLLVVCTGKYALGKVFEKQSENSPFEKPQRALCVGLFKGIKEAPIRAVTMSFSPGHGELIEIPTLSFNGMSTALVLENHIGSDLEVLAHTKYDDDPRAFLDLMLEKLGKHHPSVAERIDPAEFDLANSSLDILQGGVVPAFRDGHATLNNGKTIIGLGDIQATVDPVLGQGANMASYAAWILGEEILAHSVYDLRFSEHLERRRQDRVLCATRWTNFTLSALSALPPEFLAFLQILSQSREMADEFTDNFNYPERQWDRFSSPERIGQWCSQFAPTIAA
Chain of apo NSMOA (O50214 whole entry): as above

SMILES: Cc1cc2nc3c(=O)[nH]c(=O)nc-3n(C[C@H](O)[C@H](O)[C@H](O)COP(=O)(O)OP(=O)(O)OC[C@H]3O[C@@H](n4cnc5c(N)ncnc54)[C@H](O)[C@@H]3O)c2cc1C [oxidized FAD, flavin adenine dinucleotide]
- Em1, solution potential of free FAD [1]: -212 mV
- equilibrium midpoint potential of FAD bound to benzene-bound NSMOA (NSMOA [2]; [4]): -142 mV
- equilibrium midpoint potential of FAD bound to benzene-free NSMOA (NSMOA [2]; [4]): -97 mV
- rate constant k1 (NSMOA [3]): 265 s⁻¹
- rate constant k2 (NSMOA [3]): 120 s⁻¹
- rate constant k3 (NSMOA [3]): 21 s⁻¹
- rate constant k4 (NSMOA [3]): 0.34 s⁻¹

SMILES: c1ccccc1 [benzene, reference compound]
- Kd (apo NSMOA): 4.2 ± 0.37 mM
- positive cooperative interaction of benzene and reduced FAD binding (Kd1/Kd7) (NSMOA [2]; benzene affinity for reduced-FAD complex of NSMOA relative to comparison state): ~2 fold
- decrease in cooperativity of substrate-analog and reduced-FAD binding equilibria (NSMOA [2]; relative to oxidized FAD cooperativity): 30 fold

SMILES: C=Cc1ccccc1 [styrene]
- styrene concentration at which growth is inhibited (P. putida S12): greater than 300 μM
